Test results as given in ChEMBL document CHEMBL1124217, “2,4-Diamino-5-benzylpyrimidines and analogues as antibacterial agents. 9. Lipophilic trimethoprim analogues as antigonococcal agents” (J Med Chem, 1988).
≈ marks a conversion by molar mass, not a printed value.

Columns and labels:
Rattus norvegicus [1] = experiment: Conc in ovary of female rat 24 hr after administration of dose; assay type: functional, organism-based; details: Female gonad
Rattus norvegicus [2] = experiment: Conc in brain of male rat 4 hr after administration of dose; assay type: functional, organism-based
Rattus norvegicus [3] = experiment: Conc in brain of male rat 0.25 hr after administration of dose; assay type: functional, organism-based
Rattus norvegicus [4] = experiment: Conc in serum of female rat 2 hr after administration of dose; assay type: functional, organism-based
Neisseria gonorrhoeae = experiment: Inhibition of growth of Neisseria gonorrhoeae; assay type: functional
Rattus norvegicus [5] = experiment: Conc in lung of male rat 24 hr after administration of dose; assay type: functional, organism-based
Rattus norvegicus [6] = experiment: Conc in kidney of male rat 6 hr after administration of dose; assay type: functional, organism-based
Rattus norvegicus [7] = experiment: Conc in stomach of male rat 10h after administration of dose; assay type: functional, organism-based
Rattus norvegicus [8] = experiment: Conc in intestine of male rat 0.75h after administration of dose; assay type: functional, organism-based
Rattus norvegicus [9] = experiment: Conc in serum of female rat 4 hr after administration of dose; assay type: functional, organism-based
Rattus norvegicus [10] = experiment: Conc in muscle of male rat 0.75h after administration of dose; assay type: functional, organism-based; details: Muscle tissue
Rattus norvegicus [11] = experiment: Conc in stomach of male rat 24 hr after administration of dose; assay type: functional, organism-based
Rattus norvegicus [12] = experiment: Conc in ovary of female rat 3h after administration of dose; assay type: functional, organism-based; details: Female gonad
Rattus norvegicus [13] = experiment: Conc in serum of female rat 0.50 hr after administration of dose; assay type: functional, organism-based
Rattus norvegicus [14] = experiment: Conc in testes of male rat 6 hr after administration of dose; assay type: functional, organism-based; details: Testis
Rattus norvegicus [15] = experiment: Conc in lung of male rat 1 hr after administration of dose; assay type: functional, organism-based
Rattus norvegicus [16] = experiment: Conc in liver of male rat after 0.75h administration of dose; assay type: functional, organism-based
Rattus norvegicus [17] = experiment: Conc in serum of male rat 6 hr after administration of dose; assay type: functional, organism-based
Staphylococcus aureus = experiment: Inhibition of growth of Staphylococcus aureus (CN491) measured as MIC compound/MIC Trimethoprim; assay type: functional
Rattus norvegicus [18] = experiment: Conc in kidney of male rat 1.5h after administration of dose; assay type: functional, organism-based
Rattus norvegicus [19] = experiment: Conc in serum of male rat 3h after administration of dose; assay type: functional, organism-based
Rattus norvegicus [20] = experiment: Conc in brain of male rat 1.5h after administration of dose; assay type: functional, organism-based
Rattus norvegicus [21] = experiment: Conc in intestine of male rat 0.50 hr after administration of dose; assay type: functional, organism-based
Rattus norvegicus [22] = experiment: Conc in lung of male rat 10h after administration of dose; assay type: functional, organism-based
Rattus norvegicus [23] = experiment: Conc in kidney of male rat 24 hr after administration of dose; assay type: functional, organism-based
Rattus norvegicus [24] = experiment: Conc in testes of male rat 24 hr after administration of dose; assay type: functional, organism-based; details: Testis
Rattus norvegicus [25] = experiment: Conc in brain of male rat 6 hr after administration of dose; assay type: functional, organism-based
Rattus norvegicus [26] = experiment: Conc in kidney of male rat after 0.75h administration of dose; assay type: functional, organism-based
Rattus norvegicus [27] = experiment: Conc in kidney of male rat 3h after administration of dose; assay type: functional, organism-based
Rattus norvegicus [28] = experiment: Conc in lung of male rat 0.50 hr after administration of dose; assay type: functional, organism-based
Rattus norvegicus [29] = experiment: Conc in muscle of male rat 24 hr after administration of dose; assay type: functional, organism-based; details: Muscle tissue
Escherichia coli = experiment: Inhibition of growth of Escherichia coli (CN314) measured as MIC compound/MIC Trimethoprim; assay type: functional
Rattus norvegicus [30] = experiment: Conc in serum of male rat 0.75h after administration of dose; assay type: functional, organism-based
Rattus norvegicus [31] = experiment: Conc in ovary of female rat 1.5h after administration of dose; assay type: functional, organism-based; details: Female gonad
Rattus norvegicus [32] = experiment: Conc in serum of female rat 1 hr after administration of dose; assay type: functional, organism-based
Rattus norvegicus [33] = experiment: Conc in serum of male rat 24 hr after administration of dose; assay type: functional, organism-based
Rattus norvegicus [34] = experiment: Conc in serum of male rat 1.5h after administration of dose; assay type: functional, organism-based
Rattus norvegicus [35] = experiment: Conc in muscle of male rat 1 hr after administration of dose; assay type: functional, organism-based; details: Muscle tissue
Rattus norvegicus [36] = experiment: Conc in brain of male rat 2 hr after administration of dose; assay type: functional, organism-based
Rattus norvegicus [37] = experiment: Conc in serum of female rat 10h after administration of dose; assay type: functional, organism-based
Rattus norvegicus [38] = experiment: Conc in serum of male rat 4 hr after administration of dose; assay type: functional, organism-based
Rattus norvegicus [39] = experiment: Conc in muscle of male rat 2 hr after administration of dose; assay type: functional, organism-based; details: Muscle tissue
Rattus norvegicus [40] = experiment: Conc in testes of male rat 0.50 hr after administration of dose; assay type: functional, organism-based; details: Testis
Rattus norvegicus [41] = experiment: Conc in ovary of female rat 1 hr after administration of dose; assay type: functional, organism-based; details: Female gonad
Rattus norvegicus [42] = experiment: Conc in liver of male rat 1.5h after administration of dose; assay type: functional, organism-based
Rattus norvegicus [43] = experiment: Conc in intestine of male rat 0.25 hr after administration of dose; assay type: functional, organism-based
Rattus norvegicus [44] = experiment: Conc in serum of female rat 3h after administration of dose; assay type: functional, organism-based
Rattus norvegicus [45] = experiment: Conc in ovary of female rat 0.50 hr after administration of dose; assay type: functional, organism-based; details: Female gonad
Rattus norvegicus [46] = experiment: Conc in intestine of male rat 1 hr after administration of dose; assay type: functional, organism-based
Rattus norvegicus [47] = experiment: Conc in serum of male rat 2 hr after administration of dose; assay type: functional, organism-based
Klebsiella aerogenes = experiment: Inhibition of growth of Enterobacter aerogenes (2200/186) measured as MIC(compound/MIC Trimethoprim; assay type: functional
Rattus norvegicus [48] = experiment: Conc in liver of male rat 3h after administration of dose; assay type: functional, organism-based
Rattus norvegicus [49] = experiment: Conc in kidney of male rat 10h after administration of dose; assay type: functional, organism-based
Rattus norvegicus [50] = experiment: Conc in stomach of male rat 1 hr after administration of dose; assay type: functional, organism-based
Rattus norvegicus [51] = experiment: Conc in ovary of female rat 4 hr after administration of dose; assay type: functional, organism-based; details: Female gonad
Rattus norvegicus [52] = experiment: Conc in brain of male rat 10h after administration of dose; assay type: functional, organism-based
Rattus norvegicus [53] = experiment: Conc in ovary of female rat 6 hr after administration of dose; assay type: functional, organism-based; details: Female gonad
Rattus norvegicus [54] = experiment: Conc in stomach of male rat 1.5h after administration of dose; assay type: functional, organism-based
Rattus norvegicus [55] = experiment: Conc in muscle of male rat 10h after administration of dose; assay type: functional, organism-based; details: Muscle tissue
Rattus norvegicus [56] = experiment: Conc in brain of male rat 0.75h after administration of dose; assay type: functional, organism-based
Rattus norvegicus [57] = experiment: Conc in muscle of male rat 3h after administration of dose; assay type: functional, organism-based; details: Muscle tissue
Dihydrofolate reductase = target: T1, Dihydrofolate reductase (Rattus norvegicus, UniProt Q920D2); experiment: Inhibition of Rat liver Dihydrofolate reductase(DHFR); details: read-out: I50
T1 sequence (Q920D2 whole entry): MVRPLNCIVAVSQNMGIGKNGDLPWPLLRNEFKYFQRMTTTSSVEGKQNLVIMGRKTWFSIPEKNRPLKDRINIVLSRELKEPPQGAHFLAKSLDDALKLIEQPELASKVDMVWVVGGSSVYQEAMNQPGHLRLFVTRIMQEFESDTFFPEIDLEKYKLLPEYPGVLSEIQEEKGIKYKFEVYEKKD

Rattus norvegicus [58] = experiment: Conc in brain of male rat 24 hr after administration of dose; assay type: functional, organism-based
Klebsiella pneumoniae = experiment: Inhibition of growth of Klebsiella pneumoniae (CN3632) measured as MIC compound/MIC Trimethoprim; assay type: functional
Rattus norvegicus [59] = experiment: Conc in testes of male rat 4 hr after administration of dose; assay type: functional, organism-based; details: Testis
Rattus norvegicus [60] = experiment: Conc in kidney of male rat 2 hr after administration of dose; assay type: functional, organism-based
Rattus norvegicus [61] = experiment: Conc in lung of male rat 4 hr after administration of dose; assay type: functional, organism-based
Rattus norvegicus [62] = experiment: Conc in stomach of male rat 0.50 hr after administration of dose; assay type: functional, organism-based
Rattus norvegicus [63] = experiment: Conc in kidney of male rat 1 hr after administration of dose; assay type: functional, organism-based
Rattus norvegicus [64] = experiment: Conc in lung of male rat 1.5h after administration of dose; assay type: functional, organism-based

CC(C)c1cc(Cc2cnc(N)nc2N)cc(C(C)C)c1O
Concentration (Rattus norvegicus [1]): 0.08 µg/g | Concentration (Rattus norvegicus [2]): 0.19 µg/g | Concentration (Rattus norvegicus [3]): 0.13 µg/g | Concentration (Rattus norvegicus [4]): 0.68 µg/g | MIC (Neisseria gonorrhoeae): 9.2 µM (≈ 2.76 µg/mL) | Concentration (Rattus norvegicus [5]): 0.1 µg/g | Concentration (Rattus norvegicus [6]): 1.55 µg/g | Concentration (Rattus norvegicus [7]): 2 µg/g | Concentration (Rattus norvegicus [8]): 112 µg/g | Concentration (Rattus norvegicus [9]): 0.53 µg/g | Concentration (Rattus norvegicus [10]): 2.31 µg/g | Concentration (Rattus norvegicus [11]): 1.49 µg/g | Concentration (Rattus norvegicus [12]): 2.06 µg/g | Concentration (Rattus norvegicus [13]): 0.9 µg/g | Concentration (Rattus norvegicus [14]): 0.41 µg/g | Concentration (Rattus norvegicus [15]): 11.9 µg/g | Concentration (Rattus norvegicus [16]): 23.1 µg/g | Concentration (Rattus norvegicus [17]): 0.27 µg/g | MIC ratio (Staphylococcus aureus): 10 | Concentration (Rattus norvegicus [18]): 6.74 µg/g | Concentration (Rattus norvegicus [19]): 0.47 µg/g | Concentration (Rattus norvegicus [20]): 0.65 µg/g | Concentration (Rattus norvegicus [21]): 114 µg/g | Concentration (Rattus norvegicus [22]): 0.4 µg/g | Concentration (Rattus norvegicus [23]): 0.5 µg/g | Concentration (Rattus norvegicus [24]): 0.15 µg/g | Concentration (Rattus norvegicus [25]): 0.05 µg/g | Concentration (Rattus norvegicus [26]): 10.3 µg/g | Concentration (Rattus norvegicus [27]): 4.11 µg/g | Concentration (Rattus norvegicus [28]): 8.31 µg/g | Concentration (Rattus norvegicus [29]): 0.04 µg/g | MIC ratio (Escherichia coli): 300 | Concentration (Rattus norvegicus [30]): 1.13 µg/g | Concentration (Rattus norvegicus [31]): 4.5 µg/g | Concentration (Rattus norvegicus [32]): 1.09 µg/g | Concentration (Rattus norvegicus [33]): 0.08 µg/g | Concentration (Rattus norvegicus [34]): 0.8 µg/g | Concentration (Rattus norvegicus [35]): 2.36 µg/g | Concentration (Rattus norvegicus [36]): 0.43 µg/g | Concentration (Rattus norvegicus [37]): 0.16 µg/g | Concentration (Rattus norvegicus [38]): 0.42 µg/g | Concentration (Rattus norvegicus [39]): 1.4 µg/g | Concentration (Rattus norvegicus [40]): 1.07 µg/g | Concentration (Rattus norvegicus [41]): 3.33 µg/g | Concentration (Rattus norvegicus [42]): 13.5 µg/g | Concentration (Rattus norvegicus [43]): 158 µg/g | Concentration (Rattus norvegicus [44]): 0.61 µg/g | Concentration (Rattus norvegicus [45]): 4.06 µg/g | Concentration (Rattus norvegicus [46]): 26 µg/g | Concentration (Rattus norvegicus [47]): 0.49 µg/g | MIC ratio (Klebsiella aerogenes): 100 | Concentration (Rattus norvegicus [48]): 9.56 µg/g | Concentration (Rattus norvegicus [49]): 1.13 µg/g | Concentration (Rattus norvegicus [50]): 47 µg/g | Concentration (Rattus norvegicus [51]): 1.55 µg/g | Concentration (Rattus norvegicus [52]): 0.04 µg/g | Concentration (Rattus norvegicus [53]): 0.71 µg/g | Concentration (Rattus norvegicus [54]): 97.1 µg/g | Concentration (Rattus norvegicus [55]): 0.13 µg/g | Concentration (Rattus norvegicus [56]): 1.01 µg/g | Concentration (Rattus norvegicus [57]): 1.38 µg/g | IC50 (Dihydrofolate reductase): 7.2 µM | Concentration (Rattus norvegicus [58]): 0.004 µg/g | MIC ratio (Klebsiella pneumoniae): 300 | Concentration (Rattus norvegicus [59]): 1.01 µg/g | Concentration (Rattus norvegicus [60]): 4.08 µg/g | Concentration (Rattus norvegicus [61]): 2.3 µg/g | Concentration (Rattus norvegicus [62]): 304 µg/g | Concentration (Rattus norvegicus [63]): 7.78 µg/g | Concentration (Rattus norvegicus [64]): 7.17 µg/g
